Experimental data published in patent US12662475B2, “Difluorocyclohexyl derivatives as IL-17 modulators” (UCB BIOPHARMA SRL, priority 2020, dated 2026).
Structures can show the parent of a compound that is named as a salt.

Tests used:
[1] = molecular target: T1, interaction between IL-17A and soluble IL-17 Receptor A (IL-17RA) (Homo sapiens, UniProt Q16552); test: IL-17 FRET assay; settings: IL-17A binding to IL-17RA
T1 construct: made in house; host or cells: IL-17A-Fc: CHO SXE cells; IL-17RA: Expi HEK293 cells
T1 sequence (Q16552 24-155): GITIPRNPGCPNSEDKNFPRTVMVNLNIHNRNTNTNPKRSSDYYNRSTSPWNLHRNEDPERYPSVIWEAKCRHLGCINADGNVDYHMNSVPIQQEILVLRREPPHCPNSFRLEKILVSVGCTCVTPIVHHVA
Procedure: The purpose of this assay is to test the ability of compounds to disrupt the interaction between IL-17A and soluble IL-17 Receptor A (IL-17RA). The ability of a compound to inhibit IL-17A binding to IL-17RA is measured in this assay.
An IL-17AA-TEV-Human Fc construct was expressed in a CHO SXE cell system and purified by protein A chromatography and size exclusion. The protein was labelled with an amine reactive AlexaFluor 647 dye (Thermo Fisher #A20006), as per manufacturer's instruction.
Soluble IL-17RA (33-317)-HKH-TEV-Fc was expressed in an Expi HEK293 cell system and purified by protein A chromatography and size exclusion. The Fc tag was cleaved by TEV, producing IL-17RA (33-317)-HKH, and the protein was labelled with amine reactive terbium (Thermo Fisher #PV3581).
In assay buffer [Dulbecco's PBS (Sigma #14190-094), 0.05% P20 (Thermo Scientific #28320), 1 mg/mL BSA (Sigma #A2153-500G)] the following solutions were prepared:
• IL-17A-Fc-AF647 at 5 nM • IL-17RA-HKH-Tb at 5 nM
Compounds were serially diluted in DMSO before receiving an aqueous dilution into a 384 well dilution plate (Greiner #781281), to give a 25% DMSO solution.
IL-17A (10 μL) was added to a black low volume assay plate (Costar #4511) and diluted compound (5 μL) was transferred from the aqueous dilution plate. The cytokine and compound were allowed to incubate for 1 h, then IL-17RA (10 μL) was added. The plates were wrapped in foil and incubated at room temperature for 18-20 h with gentle shaking (<400 rpm) before being read on a Perkin Elmer Envision plate reader (Excitation: 330 nm; Emission 615/645 nm).
The final assay concentrations were IL-17A-AF647 2 nM and IL-17RA-Tb 2 nM, 5% DMSO.

[2] = system: IL-17 induced IL-6 release from human dermal fibroblasts; test: Inhibition of IL-17A induced IL-6 release from dermal fibroblast cell line (HDF cell line assay); assay type: cell-based
Procedure: Inhibition of IL-17A Induced IL-6 Release from Dermal Fibroblast Cell Line
The purpose of this assay is to test the neutralising ability to IL-17 proteins, in a human primary cell system.
The resultant IL-6 response was then measured using a homogenous time-resolved FRET kit from Cisbio. The kit utilises two monoclonal antibodies, one labelled with Eu-Cryptate (Donor) and the second with d2 or XL665 (Acceptor).
The ability of a compound to inhibit IL-17 induced IL-6 release from human dermal fibroblasts is measured in this assay.
The TrypLE was neutralised using complete medium (45 mL) and the cells were centrifuged at 300×g for 3 minutes. […] The cells were left for a minimum of three hours, at 37° C./5% CO2, to adhere to the plate.
10 μL from the aqueous dilution plate was transferred to the reagent plate containing 30 μL of the diluted cytokines, to give a 2.5% DMSO solution. The compounds were incubated with the cytokine mixtures for 1 h or 5 h at 37° C. After the incubation, 10 μL was transferred to the assay plate, to give a […] solution, then incubated for 18-20 h at 37° C./5% CO2.

SMILES | IC50 [1] [µM] | IC50 ([2]; Incubation Time 5 h) [µM] | IC50 ([2]; Incubation Time 1 h) [µM]
Cc1nonc1C(=O)N[C@H](c1nc2c(F)c(C(CC(F)F)C(=O)N3CC(F)(F)C3)ccc2[nH]1)C1CCC(F)(F)CC1 (mixture of isomers) [Example 3, N—[(S)-{5-[1-(3,3-Difluoroazetidine-1-carbonyl)-3,3-difluoropropyl]-4-fluoro-1H-benzimidazol-2-yl}(4,4-difluorocyclohexyl)methyl]-4-methyl-1,2,5-oxadiazole-3-carboxamide] | 0.0251 | 0.0251 | 
Cc1nonc1C(=O)N[C@H](c1nc2c(F)c([C@@H](CC(F)F)C(=O)N3CC(F)(F)C3)ccc2[nH]1)C1CCC(F)(F)CC1 (single isomer, unassigned) [Example 5] | 1.58 |  | 1.26
COC(=O)N1CCC(C(=O)N2CC(F)(F)C2)(c2ccc3[nH]c([C@@H](NC(=O)c4nonc4C)C4CCC(F)(F)CC4)nc3c2F)CC1 [Example 17, Methyl 4-(3,3-difluoroazetidine-1-carbonyl)-4-(2-{(S)-(4,4-difluorocyclohexyl)[(4-methyl-1,2,5-oxadiazole-3-carbonyl)amino]methyl}-4-fluoro-1H-benzimidazol-5-yl)-piperidine-1-carboxylate] | 0.0501 | 0.0126 | 
COC(=O)N1CC[C@](C(=O)N2CC(F)(F)C(F)(F)C2)(c2ccc3[nH]c([C@@H](NC(=O)c4nonc4C)C4CCC(F)(F)CC4)nc3c2F)C1 (single isomer, unassigned) [Example 1] | 0.0398 | 0.00631 | 
C[C@@H](C(=O)N1CC(F)(F)C1)c1ccc2[nH]c([C@@H](NC(=O)c3ccnn3C)C3CCC(F)(F)CC3)nc2c1F (single isomer, unassigned) [Example 22] | 0.316 | 0.316 | 
Cc1nonc1C(=O)N[C@H](c1nc2c(F)c(C(CC(F)(F)F)C(=O)N3CC(F)(F)C3)ccc2[nH]1)C1CCC(F)(F)CC1 (stereo partly drawn) [Example 7, N—[(S)-{5-[1-(3,3-Difluoroazetidine-1-carbonyl)-3,3,3-trifluoropropyl]-4-fluoro-1H-benzimidazol-2-yl}(4,4-difluorocyclohexyl)methyl]-4-methyl-1,2,5-oxadiazole-3-carboxamide] | 0.0158 | 0.0158 | 
C[C@H](C(=O)N1CC(F)(F)C1)c1ccc2[nH]c([C@@H](NC(=O)c3ccnn3C)C3CCC(F)(F)CC3)nc2c1F (single isomer, unassigned) [Example 21] | 0.0251 | 0.0158 | 
Cc1nonc1C(=O)N[C@H](c1nc2c(F)c(C3(C(=O)N4CC(F)(F)C4)CCC(F)(F)CC3)ccc2[nH]1)C1CCC(F)(F)CC1 [Example 23, N—[(S)-{5-[1-(3,3-Difluoroazetidine-1-carbonyl)-4,4-difluorocyclohexyl]-4-fluoro-1H-benzimidazol-2-yl}(4,4-difluorocyclohexyl)methyl]-4-methyl-1,2,5-oxadiazole-3-carboxamide] | 0.02 | 0.01 | 
Cn1nccc1C(=O)N[C@H](c1nc2c(F)c(C(CC(F)F)C(=O)N3CC(F)(F)C3)ccc2[nH]1)C1CCC(F)(F)CC1 (stereo partly drawn) [Example 6, N—[(S)-{5-[1-(3,3-Difluoroazetidine-1-carbonyl)-3,3-difluoropropyl]-4-fluoro-1H-benzimidazol-2-yl}(4,4-difluorocyclohexyl)methyl]-2-methylpyrazole-3-carboxamide] | 0.0794 | 0.0251 | 
CC(C(=O)N1CC(F)(F)C1)c1ccc2[nH]c([C@@H](NC(=O)c3ccnn3C)C3CCC(F)(F)CC3)nc2c1F (mixture of isomers) [Example 20, N—[(S)-{5-[2-(3,3-Difluoroazetidin-1-yl)-1-methyl-2-oxoethyl]-4-fluoro-1H-benzimidazol-2-yl}(4,4-difluorocyclohexyl)methyl]-2-methylpyrazole-3-carboxamide] | 0.1 | 0.02 | 
CC(C)n1ncnc1C(=O)N[C@H](c1nc2nc(C3(C(=O)NCC(F)(F)F)CCC(F)(F)CC3)ccc2[nH]1)C1CCC(F)(F)CC1 [Example 77, N—[(S)-(4,4-Difluorocyclohexyl){5-[4,4-difluoro-1-(2,2,2-trifluoroethylcarbamoyl)-cyclohexyl]-1H-imidazo[4,5-b]pyridin-2-yl}methyl]-2-isopropyl-1,2,4-triazole-3-carboxamide] |  | 0.0126 | 
Cc1nonc1C(=O)N[C@H](c1nc2c(F)c(C(CC(F)(F)F)C(=O)NCC3CC3(F)F)ccc2[nH]1)C1CCC(F)(F)CC1 (stereo partly drawn) [Example 14, N—[(S)-(4,4-Difluorocyclohexyl)(5-{1-[(2,2-difluorocyclopropyl)methylcarbamoyl]-3,3,3-trifluoropropyl}-4-fluoro-1H-benzimidazol-2-yl)methyl]-4-methyl-1,2,5-oxadiazole-3-carboxamide] |  | 0.00794 | 
O=C(N[C@H](c1nc2c(F)c([C@@H](CC(F)F)C(=O)NCC(F)(F)F)ccc2[nH]1)C1CCC(F)(F)CC1)c1ccccc1F (single isomer, unassigned) [Example 51] |  | 1.58 | 
Cc1nonc1C(=O)N[C@H](c1nc2nc(C3(C(=O)NCC(F)(F)F)CCC(F)(F)CC3)ccc2[nH]1)C1CCC(F)(F)CC1 [Example 39, N—[(S)-(4,4-Difluorocyclohexyl){5-[4,4-difluoro-1-(2,2,2-trifluoroethylcarbamoyl)-cyclohexyl]-1H-imidazo[4,5-b]pyridin-2-yl}methyl]-4-methyl-1,2,5-oxadiazole-3-carboxamide Monoformate Salt] |  | 0.00501 | 
Cc1nonc1C(=O)N[C@H](c1nc2c(F)c(C(CC(F)(F)F)C(=O)NCC(F)F)ccc2[nH]1)C1CCC(F)(F)CC1 (mixture of isomers) [Example 36, N—[(S)-(4,4-Difluorocyclohexyl){5-[1-(2,2-difluoroethylcarbamoyl)-3,3,3-trifluoro-propyl]-4-fluoro-1H-benzimidazol-2-yl}methyl]-4-methyl-1,2,5-oxadiazole-3-carboxamide] |  | 0.0316 | 
Cc1nonc1C(=O)N[C@H](c1nc2c(F)c([C@@H](CC(F)F)C(=O)N[C@H](C)C(F)(F)F)ccc2[nH]1)C1CCC(F)(F)CC1 (single isomer, unassigned) [Example 48] |  | 3.16 | 
CC(C)(F)CNC(=O)[C@H](CC(F)(F)F)c1ccc2[nH]c([C@@H](NC(=O)c3nonc3C3CC3)C3CCC(F)(F)CC3)nc2c1F (single isomer, unassigned) [Example 63] |  | 0.158 | 
CC(F)(F)CNC(=O)C(CC(F)(F)F)c1ccc2[nH]c([C@@H](NC(=O)C3(F)CC3)C3CCC(F)(F)CC3)nc2c1F (mixture of isomers) [Example 82, N—[(S)-(4,4-Difluorocyclohexyl){5-[1-(2,2-difluoropropylcarbamoyl)-3,3,3-trifluoro-propyl]-4-fluoro-1H-benzimidazol-2-yl}methyl]-1-fluorocyclopropanecarboxamide] |  | 0.0251 | 
Cc1nonc1C(=O)N[C@H](c1nc2c(F)c(C(CC(F)F)C(=O)NCC(F)(F)F)ccc2[nH]1)C1CCC(F)(F)CC1 (mixture of isomers) [Example 40, N—[(S)-(4,4-Difluorocyclohexyl){5-[3,3-difluoro-1-(2,2,2-trifluoroethylcarbamoyl)-propyl]-4-fluoro-1H-benzimidazol-2-yl}methyl]-4-methyl-1,2,5-oxadiazole-3-carboxamide] |  | 0.00794 | 
Cc1nonc1C(=O)N[C@H](c1nc2c(F)c([C@H](CC(F)F)C(=O)N[C@H](C)C(F)(F)F)ccc2[nH]1)C1CCC(F)(F)CC1 (single isomer, unassigned) [Example 47] |  | 0.158 | 
CC(C)(F)CNC(=O)C(CC(F)(F)F)c1ccc2[nH]c([C@@H](NC(=O)c3nonc3C3CC3)C3CCC(F)(F)CC3)nc2c1F (mixture of isomers) [Example 62, 4-Cyclopropyl-N—[(S)-(4,4-difluorocyclohexyl)(4-fluoro-5-{3,3,3-trifluoro-1-[(2-fluoro-2-methylpropyl)carbamoyl]propyl}-1H-benzimidazol-2-yl)methyl]-1,2,5-oxadiazole-3-carboxamide] |  | 0.00501 | 
